# US20250332160A1, “COMPOSITION CONTAINING ARIPIPRAZOLE AS ACTIVE INGREDIENT FOR ENHANCING ANTICANCER EFFECT OF ERK INHIBITOR” (KOREA INSTITUTE OF RADIOLOGICAL & MEDICAL SCIENCES, priority 2022, published 2025)
# Assays:
# NOXA = experiment: Expression of NOXA protein in COLO 205 cells, Western blot; type: cell-based; conditions: eight hours after treatment, Western blot (FIG. 1)
# Procedure: (§1) To identify an effect of aripiprazole on the expression of NOXA and PUMA proteins in cancer cells, COLO 205 cells were treated with aripiprazole. Eight hours later, proteins were extracted from cells after washing with PBS, and a level of NOXA and PUMA expression was checked via Western blot.
# PUMA = experiment: Expression of PUMA protein in COLO 205 cells, Western blot; type: cell-based; conditions: eight hours after treatment, Western blot (FIG. 1)
# Procedure: as §1
structure (smiles),measurement,setting,value
O=C1CCc2ccc(OCCCCN3CCN(c4cccc(Cl)c4Cl)CC3)cc2N1 [aripiprazole],expression of NOXA protein,NOXA,increased
same,expression of PUMA protein,PUMA,increased
